The source of these data is patent US10745701B2, “Methods of identifying and treating poor-prognosis cancers” (The Trustees of Princeton University, priority 2007, dated 2020).

Data set [1] relates to LM2 cells. The data set can be described thus: Drug uptake and retention analysis of radiolabeled paclitaxel and doxorubicin. Particulars: for effect of MTDH on drug uptake or retention: cancer cells with modified MTDH expression (LM2 knockdown, SCP28 overexpression); for kinetics of uptake and retention: parent LM2 cells, pilot study, 50 nM [H3]-paclitaxel or 100 nM [C14]-doxorubicin.
Method: Cells were seeded into 12 well plates at densities of 3×10^5 per well in 1 ml of culture medium. One day after seeding, the medium was replaced with 1 ml of medium containing 50 nM [H^3]-Paclitaxel (Moravek, 2 Ci/mmol) or 100 nM [C^14]-Doxorubicin (GE HealthCare, 56 mCi/mmol). […] For the uptake study, cells were harvested immediately after incubation with drug-containing medium. For the retention study, cells were incubated with drug-containing medium for 4 h, followed by incubation in 2 ml drug-free medium and then harvested. After washing with cold PBS, the pelleted cells were lysed with 200 ul of 0.1N NaOH. An aliquot (5 ul) was used to determine the protein concentration by Bradford assay (Sigma-Aldrich) with BSA as standards. The remaining cell lysates were transferred to scintillation count vials and mixed with 4 ml ECoScint scintillation fluid (National Diagnostics) and the radioactivity was measured by liquid scintillation counting. A standard curve was established and used to calculate the amount of cell-associated drug.

In data set [2] the test system is LM2 cells. The data set can be described thus: In vivo chemoresistance assay, subcutaneous LM2 xenograft tumors. Also noted: species or system nude mice. The procedure: MTDH-knockdown or control LM2 cells (1×10^6 cells/0.1 ml in a 50:50 solution of PBS and Matrigel) were injected subcutaneously into each flank of nude mice. The mice were treated with chemotherapeutic drugs (20 mg/kg paclitaxel or 5 mg/kg doxorubicin) or the corresponding drug vehicles (Cremophor for paclitaxel and saline for doxorubicin) twice a week by intravenous delivery a week after the tumor xenografting. Six mice (12 tumors) were used for each group. Tumor growth was monitored twice a week by size measurement. Both maximum (L) and minimum (W) diameters of the tumor were measured using a slide caliper, and the tumor volume was calculated as […]LW^2/6. Tumor growth was normalized to that before drug treatment.

The test system of data set [3] is LM2 cells. Nature of the data set: Chemoresistance clonogenic assay. The note with it: for chemoresistance on ALDH3A1 overexpression in MTDH knockdown cells: constitutive ALDH3A1 overexpression in MTDH knockdown LM2 cells; for sensitivity of LM2 cells on ALDH3A1 knockdown: inducible ALDH3A1 shRNA induced by doxycycline. It is filed as cell-based, human. The method, then:
The infected cells were selected with 0.5 μg/ml puromycin or/and 0.4 mg/ml hygromycin. Double knockdown of MET and ALDH3A1 was achieved by simultaneous infection of MET and ALDH3A1 targeting viruses with different drug selection markers. MTDH, LAPTM4b, PTDSS1, SDC2, TSPYL5, and UQCRB overexpression was achieved using the retroviral expression vector pBabe-hygro. Viruses were generated and used to infect target cells as above and the infected cells were selected with 0.4 mg/ml hygromycin. For combinational overexpression of genes at 8q22, the viruses generated from the expression vector pBabe-puro containing each of the four genes were concentrated by ultracentrifugation and pooled for infection. Northern blots, qRT-PCR, and/or Western blots were performed to validate the knockdown or overexpression of target genes.
To generate an inducible knockdown of ALDH3A1, a retroviral vector expressing the Tet repressor (TetR) was constructed by cloning the TetR coding sequence from the pcDNA6/TR plasmid (Invitrogen) to pQCXIH (Clontech). LM2 cell line with stable expression of TetR was generated by transduction with retroviruses produced from pQCXIH-TetR. The cell line was then infected with retroviruses generated from the pRSMX vector^77 containing the ALDH3A1-targeting shRNA sequence. The expression of a shRNA against ALDH3A1 is under the control of the histone H1 promoter and two adjacent tetracycline operators (TetOs). The bacterial Tet repressor (TetR) is constitutively expressed from the integrated pQCXIH-TetR in this cell line and suppresses the expression of shRNA by binding to TetOs. In the presence of […] doxycycline in the media, TetR is released from the TetOs and allow the transcription of ALDH3A1 shRNA and thus the repression of ALDH3A1 expression. The pBabe-hygro vector was used to overexpress ALDH3A1.
Cancer cells with genetic modification of MTDH and/or ALDH3A1 and the vector control were seeded into a 48-well plate (10^4 cells/well). After 24 h, the cells were treated with apoptosis-inducing chemicals for the indicated time (20, 50 or 100 nM paclitaxel, EMD Biosciences, 24 h; 50, 100 or 200 μM doxorubicin, EMD Biosciences, 24 h; 40 μM cisplatin, EMD Biosciences, 2 h; 200 or 500 μM H2O2, Fisher Scientific, 2 h) or 10 mJ/cm^2 UV irradiation. After culturing in drug-free DMEM medium for another 48 h, the surviving cells were quantified by clonogenic assay with the standard procedure for long-term recovery. Briefly, an aliquot of the harvested cell population was seeded onto a 10 cm dish. Crystal violet staining was used to count the colonies after 10-day culture in DMEM medium. The colony numbers from untreated cells of the same line were used to normalize the experimental data. In the HMVEC-L co-culture assays, HMVEC-L cells were grown to confluence in the 48-well plates with supplemented EGM-2 medium (Lonza) before seeding of cancer cells. Because HMVEC-L cells could not form colonies in the DMEM medium (data not shown), the rest of the assay was performed following the standard procedure.

Molecules are shown by their SMILES.

As to `CC(=O)O[C@H]1C(=O)[C@@]2(C)[C@H]([C@H](OC(=O)c3ccccc3)[C@]3(O)C[C@H](OC(=O)[C@H](O)[C@@H](NC(=O)c4ccccc4)c4ccccc4)C(C)=C1C3(C)C)[C@]1(OC(C)=O)CO[C@@H]1C[C@@H]2O` [paclitaxel], in data set [1], the “effect of MTDH on drug uptake or retention” value is given as “does not decrease drug uptake or retention”; the “kinetics of uptake and retention” value was “biphasic kinetics”. In addition, the “tumor size relative to pre-treatment size” value in data set [2] (MTDH knockdown LM2 cells, 20 mg/kg paclitaxel intravenous twice a week, 18 days after initiation of treatment) is recorded as “about 30%”. Also, in data set [2] (MTDH knockdown LM2 cells, paclitaxel 20 mg/kg or doxorubicin 5 mg/kg twice a week), the “tumor response in MTDH knockdown tumors” value is reported as “tumor regression”. Moreover, the “tumor volume relative to volume before treatment” value in data set [2] (control LM2 cells, 20 mg/kg paclitaxel intravenous twice a week, 18 days after treatment) amounted to 140%. For the same molecule, in data set [2] (control LM2 cells, versus drug vehicle), the “effect on tumor growth” value is “significantly hampered tumor growth”. For the same molecule, in data set [3], the “chemoresistance on ALDH3A1 overexpression in MTDH knockdown cells” value was “partially restore” and the “sensitivity of LM2 cells on ALDH3A1 knockdown” value was “more sensitive”.
For `COc1cccc2c1C(=O)c1c(O)c3c(c(O)c1C2=O)C[C@@](O)(C(=O)CO)C[C@@H]3O[C@H]1C[C@H](N)[C@H](O)[C@H](C)O1` [doxorubicin], in data set [1], the “effect of MTDH on drug uptake or retention” value is listed as “does not decrease drug uptake or retention”; the “kinetics of uptake and retention” value is recorded as “biphasic kinetics”. The “chemoresistance on MET knockdown” value in data set [3] (MET knockdown in LM2 cells, weaker than MTDH knockdown) is “significant reduction of chemoresistance”. Also, in data set [3], the “chemoresistance on ALDH3A1 overexpression in MTDH knockdown cells” value was “partially restore” and the “sensitivity of LM2 cells on ALDH3A1 knockdown” value is “more sensitive”.
